Here are results for four compounds from US12187992B2, “Method and device for early cancer screening” (The Regents of the University of California, priority 2020, dated 2025).

Common to all, as to format: cell-based, human
Assay [1] deals with weakly adherent MDA-MB-231 cells. As to the kind of experiment: 2D migration assay on step-gradient hydrogels under drug treatment (durotaxis). The following applies: WA mammary cells. An excerpt: (§1) A two-step photopolymerization method was used as described previously (Happe et al., 2017) to produce hydrogels with alternating elasticity profiles. Acrylamide concentrations of the prepolymer solutions were modified to obtain elasticities matching that of the tumor and stromal environment of each type of cancer. For breast cancer hydrogels, 3% acrylamide (3.7% for lung, 6.4% for prostate) and 0.4% bis-acrylamide were used for the first prepolymer solution, which was polymerized between a methacrylated 18 mm coverslip and a chlorosilanated glass slide by exposing to ultraviolet light (350 nm) for 5 minutes, using 2-hydroxy-4′-(2-hydroxyethoxy)-2-methylpropiophenone (0.5%) as the photo-initiator. The PA hydrogel was removed from the chlorosilanated glass slide and dehydrated for 1 hour on a hot plate at 30° C. prior to rehydrating with a 2% acrylamide (3.7% for lung, 3.2% for prostate) and 0.4% bis-acrylamide prepolymer solution. The rehydrated gel was again exposed to UV light for 5 min through a high-resolution chrome patterned photomask 200 μm dark stripes and 100 μm clear stripes. The Young's moduli of each region were validated using atomic force microscopy.
(§2) The hydrogels were then placed in a 12-well plate on top of 50 μl of 2 mg/ml of collagen I to adhere the coverslip to the bottom of the well. After the collagen polymerized, the gels were immersed in a solution of sulfosuccinimidyl 6-(4′-azido-2′-nitrophenylamino)hexanoate (0.2 mg/ml, Sulfo-SANPAH; Pierce) dissolved in 4-(2-hydroxyethyl)-1-piperazineethanesulfonic acid buffer (pH 8.4, 50 mM) and exposed to UV light (350 nm) for 10 minutes. After washing several times with PBS, the functionalized surface of the gels was coated with collagen I (150 μg/ml) by incubating overnight at 37° C.
(§3) Weakly and strongly adherent cells were isolated at varying shear stresses using a parallel plate flow chamber (Beri et al., 2020). To ensure sufficient spacing between individual cells, MDA-MB-231 and NCI-H1299 cells were seeded at […] onto a fibronectin (2 μg/cm^2) coated glass plate and incubated overnight. […] For each cell line, PBS free of magnesium and calcium and with 4.5 g/L of dextrose was used to shear cells. Shear stresses used to detach the weakly adherent (WA) population were selected to collect about 20,000 cells at a given flow rate (3 min at 30 dynes/cm^2 for MDA-MB-231, 3 min at 60 dynes/cm^2 for PC-3 and NCI-H1299 cells). The strongly adherent (SA) population was collected after washing away the intermediate population at a higher shear stress (2 min 500 at dynes/cm^2 for MDA-MB-231, 5 min at 300 dynes/cm^2 for NCI-H1299, and 2 min at 750 dynes/cm^2 for PC-3), and detaching the remaining SA population using 0.25% trypsin-EDTA. Media was then pumped though the device to neutralize the trypsin and collect the SA cells. Collected cells were then seeded onto hydrogels and allowed to adhere for […] 2 hours prior to imaging.
(§4) Isolated cells were seeded at ˜1500 cells/well onto step-gradient gels fixed in a 12-well plate and allowed to adhere for no more than 2 hours to ensure a random distribution across the step-gradient at the start of imaging. The cells were imaged over 24 hours using a Nikon Eclipse Ti-S microscope equipped with a temperature and CO2 controller (Pathology Devices Inc., LiveCell). […] Cell trajectories were collected and analyzed using a custom MATLAB script (https://github.com/compactmatterlab/Durotaxis, MathWorks, Natick, MA). […]

Assay [2] deals with strongly adherent MDA-MB231 cells. Description: 2D migration assay on collagen gels under microtubule-targeting drug treatment. Conditions: nocodazole 0.2 ug/mL, paclitaxel 0.5 ug/mL, tracked 24 hours on collagen gels. The procedure:
(§5) To isolate the weakest and strongest 2% of the MDA-MB231 cell population for migration assays, the seeded plate was subjected to a low shear stress (28 dynes/cm^2) for 3 minutes to isolate WA cells in the flow through from the outlet. The shear stress was then increased to a high shear stress (510 dynes/cm^2) for 2 minutes to eliminate intermediate cell fractions. The remaining steps to isolate SA cells are listed above. The weakest MCF10A and […] cells were isolated using 170 and 130 dynes/cm^2 of shear stress respectively; the strongest were isolated using 1275 and 595 dynes/cm^2 respectively. 2D migration assays on collagen gels: 2.4 mg/mL Type I collagen gels were prepared by mixing collagen (Corning) with PBS, DI water, and 1 M NaOH and adjusted to pH 7.0. Gels were added to a 12-well plate and cured at 37° C. for 30 minutes. The weakest and strongest 2% of the cell population were seeded onto the gels and incubated overnight. The cells were imaged with a Nikon Eclipse Ti-S microscope equipped with a temperature- and CO2-controlled stage. Cells were imaged at 10× in brightfield every 15 minutes for 24 hours. The migration data was analyzed via Fiji. The positions were normalized to the starting point and analyzed via a custom MATLAB script to compute instantaneous speed and cell displacement. […] Cells that interacted with other cells for more than 2 hours were not tracked, as cell-cell interactions artificially slowed cell speed. For MDA-MB231 cell migration under drug treatment, cells were treated with either 0.2 μg/mL nocodazole (Cayman Chemical) or 0.5 μg/mL paclitaxel (LC Laboratories). Cells were imaged the following day for 24 hours and tracked as stated above.

In assay [3] the test system is weakly adherent MDA-MB231 cells. Described as above. Conditions: nocodazole 0.2 ug/mL, paclitaxel 0.5 ug/mL, tracked 24 hours on collagen gels. The procedure: as §5
Assay [4] concerns strongly adherent MDA-MB-231 cells. Description: 2D migration assay on step-gradient hydrogels under drug treatment (durotaxis). Conditions: SA mammary cells; LPA 1, 10 μM or DMSO; t=3 and t=24 hours.
From the text: as §1, §2, §3, §4

“Also recorded” adds a separate entry of the source.

Regarding `Cc1ccc2c(c1)C(=O)[C@]1(O)CCN(c3ccc([N+](=O)[O-])cc3)C1=N2` [blebbistatin, (S)-4′-nitro-Blebbistatin], the “cell speed on soft and stiff substrates” value in assay [1] (blebbistatin 100 μM vs DMSO, step-gradient hydrogels) is recorded as “decreased”. The “durotactic behavior (cell fraction vs hydrogel position), dose dependent response” value in assay [1] (blebbistatin 1, 10, 100 μM or DMSO, t=3 and t=27 hours) was “became more durotactic”. Moreover, in assay [1] (blebbistatin-treated vs DMSO), the antidurotactic migration result is given as “much less likely” and the “likelihood to migrate from the soft substrate into the stiff substrate (durotactic migration)” value was 2 fold.

Consider `COC(=O)Nc1nc2ccc(C(=O)c3cccs3)cc2[nH]1` [nocodazole], for which the average migration speed result in assay [2] is recorded as “unaffected; also recorded: no change”; in assay [3], “migration speed reduced to that of the strongly adherent cells; also recorded: significant decrease in migration speed; also recorded: significant decrease in average speed”.

`CC(=O)O[C@H]1C(=O)[C@@]2(C)[C@H]([C@H](OC(=O)c3ccccc3)[C@]3(O)C[C@H](OC(=O)[C@H](O)[C@@H](NC(=O)c4ccccc4)c4ccccc4)C(C)=C1C3(C)C)[C@]1(OC(C)=O)CO[C@@H]1C[C@@H]2O` [paclitaxel]: the average migration speed result is reported as “unaffected; also recorded: no change” in assay [2] and “migration speed reduced to that of the strongly adherent cells; also recorded: significant decrease in migration speed; also recorded: significant decrease in average speed” in assay [3].

Take “lysophosphatidic acid [lysophophatidic acid]”: in assay [4], the “durotactic behavior (cell fraction vs hydrogel position), dose dependent response” value was “became less durotactic”.
